Test results as given in patent US7235715B2, “Virus-resistant transgenic plants expressing L3” (priority 1998, dated 2007).

Tests used:
[1] = tested on: programmed −1 ribosomal frameshifting; experiment: Programmed −1 ribosomal frameshifting, lacZ reporter plasmids p−1/p0 in yeast; assay type: cell-based, Saccharomyces cerevisiae; settings: various concentrations, four hours
[2] = tested on: programmed −1 ribosomal frameshifting; settings: in cells and in in vitro translation extracts (ref. 19); cited from earlier work
[3] = tested on: M1 killer virus; settings: cited from earlier work

Row | SMILES | effect on programmed −1 ribosomal frameshifting ([1]; mak8-1 strains) | effect on programmed −1 ribosomal frameshifting ([1]; wild-type cells) | effect on programmed −1 ribosomal frameshifting efficiencies [2] | loss of the yeast L-A and its satellite dsRNA virus M1 [3]
1 | COc1ccc(C[C@H]2NC[C@H](O)[C@H]2OC(C)=O)cc1 [anisomycin] | neither anisomycin nor sparsomycin had any further effect | altered ribosomal frameshifting | alter | promote loss
2 | CSC[S@+]([O-])C[C@H](CO)NC(=O)/C=C/c1c(C)[nH]c(=O)[nH]c1=O [sparsomycin] | neither anisomycin nor sparsomycin had any further effect | altered ribosomal frameshifting | alter | promote loss
